# Where two headings read alike, the source gives them in different places.
# What was measured:
# Assay type in all cases: cell-based
# Candida organisms [1] = experiment: NIC assay, summary for Candida; details: for MIC: read-out: levels for Candida inhibition; for inhibitory activity against candida species: result in words, NIC assay
# Bact. intermedius [2] = experiment: nominal inhibitory concentration (NIC) assay; details: Prevotella intermedia, read-out: NIC
# Fuso. nucleatum [3] = experiment: nominal inhibitory concentration (NIC) assay; details: Fusobacterium nucleatum, read-out: NIC
# Act. naeslundii [4] = experiment: nominal inhibitory concentration (NIC) assay; details: Actinomyces naeslundii, read-out: NIC
# Strep.mutans [5] = experiment: nominal inhibitory concentration (NIC) assay; details: Streptococcus mutans, read-out: NIC
# Candida kefyr [6] = experiment: nominal inhibitory concentration (NIC) assay; details: Kluyveromyces marxianus, read-out: NIC
# Strep.pyogenes [7] = experiment: nominal inhibitory concentration (NIC) assay; details: Streptococcus pyogenes, read-out: NIC
# Porph. gingivalis [8] = experiment: nominal inhibitory concentration (NIC) assay; details: Porphyromonas gingivalis, read-out: NIC
# Strep mitior [9] = experiment: nominal inhibitory concentration (NIC) assay; details: read-out: NIC
# Act. odontolyticus [10] = experiment: nominal inhibitory concentration (NIC) assay; details: Schaalia odontolytica, read-out: NIC
# Act. actinomycetem [11] = experiment: nominal inhibitory concentration (NIC) assay; details: read-out: NIC
# S sanguis NCTC 10904 = experiment: zone diffusion assay; details: solution with 500ppm of each agent
# Excerpt: (§1) The assay was repeated for each of cetyl pyridinium chloride, chlorhexidine or triclosan individually. […]
# F nucleatum NCTC 10562 = experiment: zone diffusion assay; details: solution with 500ppm of each agent
# Excerpt: as §1
# A actinomyces NCTC 9709 = experiment: zone diffusion assay; details: solution with 500ppm of each agent
# Excerpt: as §1
# C kefyr NCTC 3106 = experiment: zone diffusion assay; details: solution with 500ppm of each agent
# Excerpt: as §1
# W recta NCTC 11489 = experiment: zone diffusion assay; details: solution with 500ppm of each agent
# Excerpt: as §1
# S mutans NCTC 11061 = experiment: zone diffusion assay; details: solution with 500ppm of each agent
# Excerpt: as §1
# C albicans NCTC 3089 = experiment: zone diffusion assay; details: solution with 500ppm of each agent
# Excerpt: as §1
# C tropicalis NCTC 3114 = experiment: zone diffusion assay; details: solution with 500ppm of each agent
# Excerpt: as §1
# Strep. milleri [12] = experiment: nominal inhibitory concentration (NIC) assay; details: read-out: NIC
# Strep. sanguis [13] = experiment: nominal inhibitory concentration (NIC) assay; details: read-out: NIC
# Strep. salivarius [14] = experiment: nominal inhibitory concentration (NIC) assay; details: Streptococcus salivarius, read-out: NIC
# Act. israelii [15] = experiment: nominal inhibitory concentration (NIC) assay; details: Actinomyces israelii, read-out: NIC
# [16] = test system: all the organisms shown in the Example 25 Table 1; experiment: NIC assay, summary over all organisms of Table 1; details: read-out: levels needed to inhibit all the desired oral microrganisms
# Strep. mitis [17] = experiment: nominal inhibitory concentration (NIC) assay; details: Streptococcus mitis, read-out: NIC
# Lacto odontolyticus [18] = experiment: nominal inhibitory concentration (NIC) assay; details: read-out: NIC
# Bact. ureolyticus [19] = experiment: nominal inhibitory concentration (NIC) assay; details: read-out: NIC
# Strep. agalactiæ [20] = experiment: nominal inhibitory concentration (NIC) assay; details: read-out: NIC
# G.vaginalis [21] = experiment: nominal inhibitory concentration (NIC) assay; details: Gardnerella vaginalis, read-out: NIC
# Staph.aureus [22] = experiment: nominal inhibitory concentration (NIC) assay; details: Staphylococcus aureus, read-out: NIC
# Candida albicans [23] = experiment: nominal inhibitory concentration (NIC) assay; details: read-out: NIC
# Peptostrepto. micros [24] = experiment: nominal inhibitory concentration (NIC) assay; details: read-out: NIC
# Candida tropicalis [25] = experiment: nominal inhibitory concentration (NIC) assay; details: read-out: NIC
# Candida albicans [26] = experiment: nominal inhibitory concentration (NIC) assay
# Peptostrepto. micros [27] = experiment: nominal inhibitory concentration (NIC) assay
# Candida organisms [28] = experiment: NIC assay, summary for Candida; details: result in words
# Excerpt: (§2) Thus, lower levels of such antimicrobial agent may be used in the present invention if it intended that such antimicrobial agent is being included principally to provide anti-Candida activity, to supplement the gap in the spectrum of activity of nisin.
# Strep. sanguis [29] = experiment: nominal inhibitory concentration (NIC) assay
# Act. actinomycetem [30] = experiment: nominal inhibitory concentration (NIC) assay
# Strep. salivarius [31] = experiment: nominal inhibitory concentration (NIC) assay
# Strep. mitis [32] = experiment: nominal inhibitory concentration (NIC) assay
# Porph. gingivalis [33] = experiment: nominal inhibitory concentration (NIC) assay
# Strep. agalactiæ [34] = experiment: nominal inhibitory concentration (NIC) assay
# Strep. milleri [35] = experiment: nominal inhibitory concentration (NIC) assay
# [36] = test system: all the organisms shown in the Example 25 Table 1; experiment: NIC assay, summary over all organisms of Table 1; details: all organisms of Example 25 Table 1 (for CPC: kills all the organisms)
# Excerpt: as §2
# Act. israelii [37] = experiment: nominal inhibitory concentration (NIC) assay
# Act. odontolyticus [38] = experiment: nominal inhibitory concentration (NIC) assay
# Fuso. nucleatum [39] = experiment: nominal inhibitory concentration (NIC) assay
# Act. naeslundii [40] = experiment: nominal inhibitory concentration (NIC) assay
# Staph.aureus [41] = experiment: nominal inhibitory concentration (NIC) assay
# Lacto odontolyticus [42] = experiment: nominal inhibitory concentration (NIC) assay
# G.vaginalis [43] = experiment: nominal inhibitory concentration (NIC) assay
# Bact. intermedius [44] = experiment: nominal inhibitory concentration (NIC) assay
# Candida tropicalis [45] = experiment: nominal inhibitory concentration (NIC) assay
# Strep.mutans [46] = experiment: nominal inhibitory concentration (NIC) assay
# Candida kefyr [47] = experiment: nominal inhibitory concentration (NIC) assay
# Strep mitior [48] = experiment: nominal inhibitory concentration (NIC) assay
# Strep.pyogenes [49] = experiment: nominal inhibitory concentration (NIC) assay
# Bact. ureolyticus [50] = experiment: nominal inhibitory concentration (NIC) assay
compound,measurement,setting,value
"[H]/N=C(\N/C(=N/[H])NCCCCCCNC(=N)NC(=N)Nc1ccc(Cl)cc1)Nc1ccc(Cl)cc1 [CHX, chlorhexidine]",MIC,Candida organisms [1]; Candida organisms,1.71 µg/mL
same,inhibitory activity against candida species,Candida organisms [1],effective
same,MIC,Bact. intermedius [2]; Bact. intermedius,2.49 µg/mL
same,MIC,Fuso. nucleatum [3]; Fuso. nucleatum,0.64 µg/mL
same,MIC,Act. naeslundii [4]; Act. naeslundii,2.01 µg/mL
same,MIC,Strep.mutans [5]; Strep.mutans,3.94 µg/mL
same,MIC,Candida kefyr [6]; Candida kefyr,0.42 µg/mL
same,MIC,Strep.pyogenes [7]; Strep.pyogenes,0.16 µg/mL
same,MIC,Porph. gingivalis [8]; Porph. gingivalis,2.36 µg/mL
same,MIC,Strep mitior [9]; Strep mitior,4.55 µg/mL
same,MIC,Act. odontolyticus [10]; Act. odontolyticus,3.37 µg/mL
same,MIC,Act. actinomycetem [11]; Act. actinomycetem,0.53 µg/mL
same,mean zones,S sanguis NCTC 10904,22.76 mm
same,mean zones,F nucleatum NCTC 10562,36.97 mm
same,mean zones,A actinomyces NCTC 9709,35.68 mm
same,mean zones,C kefyr NCTC 3106,17.03 mm
same,mean zones,W recta NCTC 11489,32.35 mm
same,mean zones,S mutans NCTC 11061,29.68 mm
same,mean zones,C albicans NCTC 3089,14.93 mm
same,mean zones,C tropicalis NCTC 3114,17.36 mm
same,MIC,Strep. milleri [12]; Strep. milleri,1.58 µg/mL
same,MIC,Strep. sanguis [13]; Strep. sanguis,0.86 µg/mL
same,MIC,Strep. salivarius [14]; Strep. salivarius,1.44 µg/mL
same,MIC,Act. israelii [15]; Act. israelii,4.11 µg/mL
same,MIC,[16],~8.46 µg/mL
same,MIC,Strep. mitis [17]; Strep. mitis,1.5 µg/mL
same,MIC,Lacto odontolyticus [18]; Lacto odontolyticus,1.88 µg/mL
same,MIC,Bact. ureolyticus [19]; Bact. ureolyticus,0.69 µg/mL
same,MIC,Strep. agalactiæ [20]; Strep. agalactiæ,0.41 µg/mL
same,MIC,G.vaginalis [21]; G.vaginalis,1.3 µg/mL
same,MIC,Staph.aureus [22]; Staph.aureus,0.54 µg/mL
same,MIC,Candida albicans [23],1.71 µg/mL
same,MIC,Peptostrepto. micros [24]; Peptostrepto. micros,8.46 µg/mL
same,MIC,Candida tropicalis [25],0.98 µg/mL
"CCCCCCCCCCCCCCCC[n+]1ccccc1 [CPC, cetyl pyridinium chloride]",MIC,Bact. intermedius [2],4.68 µg/mL
same,MIC,Fuso. nucleatum [3],0.82 µg/mL
same,MIC,Act. naeslundii [4],4.61 µg/mL
same,MIC,Strep.mutans [5],3.1 µg/mL
same,MIC,Candida kefyr [6],0.61 µg/mL
same,MIC,Strep.pyogenes [7],0.78 µg/mL
same,MIC,Porph. gingivalis [8],0.94 µg/mL
same,MIC,Strep mitior [9],1.22 µg/mL
same,MIC,Act. odontolyticus [10],1.23 µg/mL
same,MIC,Act. actinomycetem [11],1.02 µg/mL
same,mean zones,S sanguis NCTC 10904,14.44 mm
same,mean zones,F nucleatum NCTC 10562,18.99 mm
same,mean zones,A actinomyces NCTC 9709,19.41 mm
same,mean zones,C kefyr NCTC 3106,10.43 mm
same,mean zones,W recta NCTC 11489,17.15 mm
same,mean zones,S mutans NCTC 11061,17.05 mm
same,mean zones,C albicans NCTC 3089,9.79 mm
same,mean zones,C tropicalis NCTC 3114,10.39 mm
same,MIC,Strep. milleri [12],4.58 µg/mL
same,MIC,Strep. sanguis [13],2.12 µg/mL
same,MIC,Strep. salivarius [14],2.36 µg/mL
same,MIC,Strep. mitis [17],2.23 µg/mL
same,MIC,Lacto odontolyticus [18],0.83 µg/mL
same,MIC,Bact. ureolyticus [19],0.56 µg/mL
same,MIC,Strep. agalactiæ [20],0.78 µg/mL
same,MIC,G.vaginalis [21],0.3 µg/mL
same,MIC,Staph.aureus [22],0.66 µg/mL
same,MIC,Peptostrepto. micros [24],4.96 µg/mL
same,MIC,Candida tropicalis [25],0.48 µg/mL
"Oc1cc(Cl)ccc1Oc1ccc(Cl)cc1Cl [TCN, triclosan]",MIC,Candida organisms [1]; Candida,~1 µg/mL
same,inhibitory activity against candida species,Candida organisms [1],effective
same,MIC,Bact. intermedius [2],3.72 µg/mL
same,MIC,Fuso. nucleatum [3],1.6 µg/mL
same,MIC,Act. naeslundii [4],1.98 µg/mL
same,MIC,Strep.mutans [5],1.11 µg/mL
same,MIC,Candida kefyr [6],0.46 µg/mL
same,MIC,Strep.pyogenes [7],4.35 µg/mL
same,MIC,Porph. gingivalis [8],4 µg/mL
same,MIC,Strep mitior [9],4.23 µg/mL
same,MIC,Act. odontolyticus [10],3.02 µg/mL
same,MIC,Act. actinomycetem [11],1.69 µg/mL
same,mean zones,S sanguis NCTC 10904,28.97 mm
same,mean zones,F nucleatum NCTC 10562,33.98 mm
same,mean zones,A actinomyces NCTC 9709,35.92 mm
same,mean zones,C kefyr NCTC 3106,21.99 mm
same,mean zones,W recta NCTC 11489,37.20 mm
same,mean zones,S mutans NCTC 11061,32.82 mm
same,mean zones,C albicans NCTC 3089,16.99 mm
same,mean zones,C tropicalis NCTC 3114,13.66 mm
same,MIC,Strep. milleri [12],1.08 µg/mL
same,MIC,Strep. sanguis [13],0.88 µg/mL
same,MIC,Strep. salivarius [14],4.05 µg/mL
same,MIC,Act. israelii [15],3.19 µg/mL
same,MIC,[16],~7.65 µg/mL
same,MIC,Strep. mitis [17],3.94 µg/mL
same,MIC,Lacto odontolyticus [18],7.49 µg/mL
same,MIC,Bact. ureolyticus [19],7.65 µg/mL
same,MIC,Strep. agalactiæ [20],4.96 µg/mL
same,MIC,G.vaginalis [21],0.41 µg/mL
same,MIC,Staph.aureus [22],0.09 µg/mL
same,MIC,Candida albicans [23],1 µg/mL
same,MIC,Peptostrepto. micros [24],6.76 µg/mL
same,MIC,Candida tropicalis [25],0.35 µg/mL
nisin [Ambicin N],NIC,Candida albicans [26],>128 ppm
same,NIC,Peptostrepto. micros [27],>1.28 ppm
same,inhibitory activity against candida species,Candida organisms [28],lacks effective inhibitory activity
same,NIC,Strep. sanguis [29],0.23 ppm
same,NIC,Act. actinomycetem [30],0.02 ppm
same,NIC,Strep. salivarius [31],0.18 ppm
same,NIC,Strep. mitis [32],0.33 ppm
same,NIC,Porph. gingivalis [33],>1.28 ppm
same,NIC,Strep. agalactiæ [34],0.22 ppm
same,NIC,Strep. milleri [35],0.14 ppm
same,levels needed to inhibit all the desired oral microrganisms,[36],about 0.99 ppm
same,NIC,Act. israelii [37],0.53 ppm
same,NIC,Act. odontolyticus [38],0.12 ppm
same,NIC,Fuso. nucleatum [39],0.048 ppm
same,mean zones,S sanguis NCTC 10904,15.38 mm
same,mean zones,F nucleatum NCTC 10562,29.38 mm
same,mean zones,A actinomyces NCTC 9709,23.04 mm
same,mean zones,C kefyr NCTC 3106,0 mm
same,mean zones,W recta NCTC 11489,28.19 mm
same,mean zones,S mutans NCTC 11061,18.36 mm
same,mean zones,C albicans NCTC 3089,0 mm
same,mean zones,C tropicalis NCTC 3114,0 mm
same,NIC,Act. naeslundii [40],>12.8 ppm
same,NIC,Staph.aureus [41],0.13 ppm
same,NIC,Lacto odontolyticus [42],0.02 ppm
same,NIC,G.vaginalis [43],0.22 ppm
same,NIC,Bact. intermedius [44],0.91 ppm
same,NIC,Candida tropicalis [45],>128 ppm
same,NIC,Strep.mutans [46],0.43 ppm
same,NIC,Candida kefyr [47],>128 ppm
same,NIC,Strep mitior [48],0.05 ppm
same,NIC,Strep.pyogenes [49],0.009 ppm
same,NIC,Bact. ureolyticus [50],0.035 ppm
